Data as given in paper PMC12250347, “Calcium-dependent pathway as a primary cause of hypoxic RGC damage in monkey retinal explants” (PLOS One, 2025).
“Also recorded” adds a separate entry of the source.

What was measured:
[1] = system: purified porcine calpain 2; assay: Calpain-Glo Protease Assay; type: biochemical; conditions: 5 mM CaCl2, 10 min, room temperature; mean of two experiments
Source text: The porcine kidney was obtained from DART Co., Ltd. as part of a program aimed at the effective utilization of livestock by-products in Hokkaido, Japan. The procurement process followed ethical guidelines from Livestock Industry Bureau MAFF-J (ministry of agriculture, forestry and fisheries of Japan) for farm animal use, ensuring compliance with relevant regulations. Two porcine kidneys were rapidly frozen after removal, trimmed free of excess tissue or renal pelvis, and cut into small pieces (approximately 2 × 2 cm) before they thawed. About 250 g of these pieces were homogenized in 1200 mL of ice-cold 20 mM Tris-HCl (pH 8.0) with 5 mM ethylenediaminetetraacetic acid (EDTA), 0.1% 2-mercaptoethanol (2-ME), 0.1 mg/mL Pefabloc SC (MilliporeSigma, Burlington, MA, USA), 40 µg/mL bestatin, and 4 µg/mL pepstatin in a Waring blender HGBSS (Waring; Stamford, CT, USA) at 19,000 rpm using several bursts of 10 sec each with 20 sec cooling periods between each burst. The homogenate was centrifuged at 25,000 × g for 15 min at 4°C, and the supernatant was filtered through glass wool and a 5 µm filter (Merck) to remove floating lipids. The purification procedure was performed according to the method of Thompson and Goll with some minor modifications: the DEAE-cellulose and the DEAE-TSK ToyoPearl 650S columns were substituted with DEAE sepharose fast flow (Merck) and TSKgel DEAE-5PW (30) (Tosoh; Tokyo, Japan) columns, respectively. After purification, calpain-2 was dialyzed, and glycerol was added for freeze-thaw protection. The final buffer formulation was 20 mM imidazole, 5 mM 2-ME, 1 mM EDTA, 1 mM EGTA, and 20% glycerol.
For measurement of inhibitory activities against calpains in vitro, Calpain-Glo Protease Assay (Promega; Madison, WI, USA) was performed using human erythrocyte calpain 1 (MilliporeSigma) and purified porcine calpain 2. Briefly, 24 µL of each calpain diluted with 20 mM Tris-HCl (pH 7.4), 1 µL of each inhibitor, and 25 µL of reaction buffer including CaCl2 in a 96-well plate was incubated for 10 min at room temperature. The final concentration of CaCl2 in the reaction solution was 5 mM. The luminescence was measured using a microplate reader (GloMax Discover System; Promega). IC50 values from two independent experiments were averaged.

[2] = system: RGCs in monkey retinal explants; assay: PI staining and RGC counting in retinal explants under hypoxia/reoxygenation; type: cell-based, rhesus macaques (Macaca mulatta)
Source text: Globes were obtained from rhesus macaques (Macaca mulatta) at 1–7 years of age from the Oregon National Primate Research Center (Beaverton, OR, USA). The wide range of ages was unavoidable because they became available from experiments that were unrelated to the present studies. These eyes were acceptable for the purpose of our experiments. The eyes were dissected within 5 hr after death, and excised eyes were soaked in cold Hanks’ balanced salt solution (HBSS; Corning, NY, USA) or Dulbecco’s phosphate-buffered saline (DPBS; Corning). Experimental animals were handled in accordance with the Research in Vision and Ophthalmology Statement for the Use of Animals in Ophthalmic and Vision Research and with the Guiding Principles in the Care and Use of Animals (Department of Health Education and Welfare Publication National Institutes of Health 80−23).
(§1) Retina explant culture was performed as described in our previous report, except for the induction of hypoxia. Briefly, a hypoxic chamber (Coy Laboratory Products, Grass Lake, MI, USA) was controlled at 0.3% oxygen with a 95% N2/5% CO2 gas mixture. Retinas were dissected into fan-shaped explants with 6 or 7 petals (> 5 mm) in HBSS. Each explant was placed with the RGC side facing up on a Millicell organotypic standing insert (0.4 μm, 30 mm diameter, MilliporeSigma) in six-well, culture plates. They were cultured for 2 hr at 37°C under 95% N2/5% CO2 in Neurobasal-A medium supplemented with B27, N2 supplements, 2 mM L-glutamine (Thermo Fisher Scientific, Waltham, MA, USA), and 100 μg/mL primocin (Invivogen, San Diego, CA, USA). Retinal explants were then chamber-cultured under hypoxic conditions for 16 hr in a culture medium with 0.5 mM glucose, under 0.3% oxygen. The retinas were then re-oxygenated for 8 hr in a culture medium with 5.5 mM glucose. Normoxic control retinas were cultured for 24 hr in a culture medium with 5.5 mM glucose. When present, calpain inhibitors (SNJ-1945, PD-151746, C2I, and ABT-957) and cathepsin inhibitors (Odanacatib and SID26681509) in 0.1% DMSO were used at the final concentration of 10 or 100 μM in the medium. BAPTA (Thermo Fisher Scientific) and BAPTA-AM (Thermo Fisher Scientific) were also used at a final concentration of 3 or 10 mM or a final concentration of 100 or 500 μM, respectively.
(§2) All inhibitors and BAPTA were treated simultaneously with hypoxia induction, and BAPTA-AM treatment was 2 hr before hypoxia induction.
To assess the disruption of membrane barrier function, propidium iodide (PI) was utilized. Following hypoxia/reoxygenation treatment, retinal explants were incubated for 20 min in a medium containing a final concentration of 2 μg/ml of PI. For quantitative analysis, the RGC marker, RNA-binding protein with multiple splicing (RBPMS) was used at a 1:100 dilution (PhosphoSolutions, Aurora, CO, USA). RBPMS-positive and PI-positive cells in the ganglion cell layer were counted in 2 images from 2 square areas (775 × 775 μm each) located 3–5 mm and 5–7 mm away from the tips of the fan-shaped retinal flat mounts. The percentage of PI-positive RGCs was calculated as [the number of PI and RBPMS-double positive cells/the number of all RBPMS-positive cells] × 100.

[3] = system: calpain-specific SBDP150 in nerve fiber layer (NFL); assay: SBDP150 immunostaining of flat-mounted retinal explants under hypoxia/reoxygenation; type: cell-based, rhesus macaques (Macaca mulatta); conditions: H16R8; for Effect on calpain-specific SBDP150-positive staining in NFL: cathepsin inhibitor at 10 or 100 µM
Protocol: as §1, §2
Formalin-fixed retinal explants were incubated overnight at −30°C in 1: 4 dilutions of DMSO-ethanol to promote antibody penetration. The explants underwent two cycles of freezing and thawing between −80°C and room temperature in 100% ethanol for 20 min. The retinas were then rehydrated in 70%, 50%, and 15% ethanol and PBS for 20 min each, followed by overnight incubation with 0.2% Triton X-100. The samples were stained with antibodies specific for calpain-specific SBDP150 [8] (1:100 dilution, Senju Pharmaceutical) and β-III tubulin (a neuron marker, 1:500 dilution, Merck). The nerve fiber layer (NFL) was observed approximately 5 mm from the tips of the fan-shaped retinal flat mounts. Confocal images were taken using a model LSM 880 spectral confocal system with a 20x 0.8 NA lens (Carl Zeiss, Oberkochen, Germany).

[4] = 16 hr hypoxia/8 hr reoxygenation (H16R8), cathepsin inhibitor at 10 or 100 µM

Compound | IC50 Porcine Calpain 2 [1] | Effect on percentage of PI-positive RGCs [2, 4] | Effect on calpain-specific SBDP150-positive staining in NFL [3] | IC50 [1] | Effect on percentage of PI-positive RGCs ([2]; H16R8, calpain inhibitor at 100 µM) | Effect on calpain-specific SBDP150 staining in NFL (calpain activation) ([3]; calpain inhibitor at 100 µM)
CC(C)(F)C[C@H](N[C@@H](c1ccc(-c2ccc(S(C)(=O)=O)cc2)cc1)C(F)(F)F)C(=O)NC1(C#N)CC1 [Odanacatib] | No effect | did not reduce | Neither Odanacatib nor SID26681509 mitigated the increase |  |  | 
CCc1ccccc1NC(=O)CSC(=O)NNC(=O)[C@H](Cc1c[nH]c2ccccc12)NC(=O)OC(C)(C)C [SID26681509] |  | did not reduce | Neither Odanacatib nor SID26681509 mitigated the increase | 93.2 µM |  | 
COCCOCCOC(=O)N[C@@H](CC(C)C)C(=O)N[C@@H](Cc1ccccc1)C(=O)C(=O)NC1CC1 [SNJ-1945] |  |  |  | 0.072 µM | significantly decreased; also recorded: demonstrated efficacy in reducing PI-positive RGCs | demonstrated efficacy in reducing calpain activation
